Test results: paper PMC3026800, “Mechanism of Inhibition of Enveloped Virus Membrane Fusion by the Antiviral Drug Arbidol” (PLoS ONE, 2011)
“And” between values parts separate entries of the source, which are not always exact repeats. Identical values can stand only once. Like-named read-outs stand apart in the source and are kept apart here.

Legend:
HCVpp [1] = assay: microbe, parasite or virus in culture; format: cell-based, hepatitis C virus; details: for inhibition at 11.3 µM: Hepatitis C virus, Huh-7, 6 h, read-out: Inhibition of HCVpp cell entry; for Effect on HCVpp cell entry: 11.3 µM Arb, 6 h, Huh-7 cells
[2] = system: Rd114pp (envelope glycoprotein of the RD114 feline oncovirus); format: cell-based; details: 11.3 µM arbidol; control pseudoparticles
[3] = Indole fluorescence quenching of tryptophan derivative in solution; format: binding; details: NATA in solution
Procedure: (§1) Measurements were recorded on a Tecan Infinite® M1000 spectrofluorimeter.

[4] = Indole fluorescence quenching of tryptophan derivative in micelles or liposomes; format: binding
Procedure: as §1

[5] = target: T1, HCV NS4A[1–22]* transmembrane peptide (Hepatitis C virus genotype 1a, UniProt P27958); assay: Trp fluorescence quenching of peptide in PC:chol liposomes; format: binding; details: peptide in PC∶chol liposomes (1∶20)
T1 construct: HCV NS4A[1–22]* transmembrane peptide […]
Procedure: as §1

[6] = target: Trp residues of model membrane-binding peptides (HCV NS4A and BVDV NS5A); assay: Trp fluorescence quenching, model membrane peptides taken together; details: HCV NS4A and BVDV NS5A peptides in PC∶chol liposomes, both pH, summary; read-out: Apparent KD toward peptide Trp
Procedure: as §1

E2[415–432] peptide = E2[415–432] peptide (Hepatitis C virus genotype 1a, UniProt P27958); assay: Trp fluorescence quenching of fusion-related peptide in PC:chol liposomes; format: binding, HCV strain H (genotype 1a); details: peptide in PC∶chol liposomes (1∶20)
Procedure: as §1

E2[606–625] peptide = E2[606–625] peptide (Hepatitis C virus genotype 1a, UniProt P27958); assay: as above; format: binding, HCV strain H (genotype 1a); details: peptide in PC∶chol liposomes (1∶20)
Procedure: as §1

Solubility of Arb = format: physicochemical
[7] = Free Arb in Arb∶DMPC mixture by ultrafiltration; format: physicochemical; details: Arb∶DMPC molar ratio 1∶4, neutral pH, ultrafiltration cutoff 5000 Da
[8] = cited from earlier work
[9] = Surface plasmon resonance binding to immobilized DMPC liposomes (L1 chip)
Procedure: The running buffer was milliQ water. The influence of liposome concentrations on the final SPR signal was tested; we assayed lipid concentrations from 0.5 to 5 mM and measured the resulting resonance units (RU). […] We therefore chose the 2 mM concentration for our experiments. DMPC liposomes were resuspended in milliQ water and captured on sensor chip at 2 µl/min for 5 min. The flow rate was increased to 30 µl/min and the liposome surface was then washed with 10 mM NaOH for 1 min. Liposomes immobilized on the chip surface gave approx. a 5000 RU signal. […] After each binding cycle, the sensor surface was regenerated to the original matrix by injecting 50 mM NaOH/isopropanol (6∶4, v∶v). The sensor surface was then coated with a fresh liposome suspension for the next binding cycle. KD values were calculated from the equilibrium resonance signal (Req) as a function of the analyte concentration. Req values were estimated by extrapolation to infinite time using plots of resonance signal as a function of the reciprocal of time. Apparent KD were then calculated by nonlinear fitting to the expression Req = RmaxC/(KD+C), where Rmax is the maximum binding capacity of the surface and C is the analyte concentration, using the SigmaPlot software.

HCVpp [10] = assay: Membrane fusion assay: lipid mixing between pseudoparticles and R18-labeled liposomes; details: pH 5.0
Procedure: Lipid mixing between pseudoparticles and PC∶chol∶R18 liposomes was monitored by fluorescent spectroscopy, as the dequenching of R18 [18]. In brief, R18-labeled liposomes (1 µl, 12.5 µM final lipid concentration) were added to a 37°C-thermostated cuvette containing pseudoparticles in PBS pH 7.4 [viral titers: H77 (1a) 5.10e^5; W529A-HC 10e^2; Con1 (1b) 4.10e^4; JFH1 (2a) 5.10e^4; AY734983 (2b) 8.10e^4; AY734984 (3a) 3.10e^4; AY734987 (4a) 9.10e^4; AY785283 (5a) 3.10e^4; AY736194 (6a) 5.10e^3; HA 8.10e^8; Rd114 2.10e^6], and incubated 2 min. Fusion was initiated by acidification to pH 5 with HCl, and recorded on an SLM Aminco 8000 spectrofluorimeter over a 10-min time period, at excitation and emission wavelengths of 560 nm and 590 nm, respectively. Maximal R18 dequenching was measured after the addition of 0.1% Triton X-100 (final concentration) to the cuvette to lyse liposomes.

What does the source list for `CCOC(=O)c1c(CSc2ccccc2)n(C)c2cc(Br)c(O)c(CN(C)C)c12.Cl` [Arb, 1H-indole-3-carboxylic acid, 6-bromo-4-[(dimethylamino)-methyl]-5-hydroxy-1-methyl-2-[(phenylthio)methyl]-, ethyl ester, monohydrochloride]?
inhibition at 11.3 µM (HCVpp [1]; genotype 1a): 40%; inhibition at 11.3 µM (HCVpp [1]; genotype 1b): 40%; inhibition at 11.3 µM (HCVpp [1]; genotype 2a): ~60%; inhibition at 11.3 µM (HCVpp [1]; genotype 2b): 40%; inhibition at 11.3 µM (HCVpp [1]; genotype 3a): ~60%; Effect on HCVpp cell entry (HCVpp [1]; genotype 5a): weakly affected; Effect on HCVpp cell entry (HCVpp [1]; genotype 6a): weakly affected; Sensitivity of pseudoparticle entry to arbidol [2]: insensitive; Kd ([3]; pH 5.0): 55 ± 10 µM; Kd ([3]; pH 7.4): 64 ± 10 µM; Kd ([4]; TOE associated to liposomes (1∶20), summary, read-out: KD (apparent affinity)): ~10 µM; Kd ([4]; TOE in PC liposomes (1∶20), pH 5.0, read-out: KD): 9.2 ± 0.2 µM; Kd ([4]; TOE in PC liposomes (1∶20), pH 7.4, read-out: KD): 6 ± 0.5 µM; Kd ([4]; TOE in PC∶chol liposomes (1∶20), pH 5.0, read-out: KD): 15.6 ± 1.3 µM; Kd ([4]; TOE in PC∶chol liposomes (1∶20), pH 7.4, read-out: KD): 11.7 ± 1.4 µM; Kd ([4]; TOE in lyso-PC micelles (1∶800), pH 5.0, read-out: KD): 48 ± 4 µM; Kd ([4]; TOE in lyso-PC micelles (1∶800), pH 7.4, read-out: KD): 58 ± 9 µM; Kd ([5]; pH 5.0): 5.6 ± 0.3 µM; Kd ([5]; pH 7.4): 3.3 ± 0.6 µM; Kd [6]: ~4 µM; Kd (E2[415–432] peptide; pH 5.0): 28 ± 7 µM; Kd (E2[415–432] peptide; pH 7.4): ~15 µM and 15 µM; Kd (E2[606–625] peptide; pH 5.0): 70 ± 10 µM; Kd (E2[606–625] peptide; pH 7.4): 13 ± 3 µM; Solubility (Solubility of Arb; ethanol): readily soluble; Solubility (Solubility of Arb; water): soluble in the mM range; Free Arb [7]: < 0.2%; Toxicity [8]: low toxicity; Arb remaining bound to DMPC after dissociation ([9]; all Arb concentrations tested (0.5 to 11.3 µM)): about 50%; Kd ([9]; read-out: Apparent KD for DMPC, SPR, 30°C, water, Req extrapolated to infinite time, 4 separate experiments): 6.8 ± 0.4 µM; Inhibition of membrane fusion activity (HCVpp [10]; all tested genotypes, 11.3 µM Arb): about 50%; IC50 (HCVpp [10]; read-out: IC50 of HCVpp fusion, lipid mixing with R18 liposomes): 11.3 µM and ~10 µM
